From patent US11123292B2, “Use of biocompatible microdroplets for the treatment of atherosclerosis, heart disease and stroke” (priority 2014, dated 2021)
“Also recorded” adds a separate entry of the source.

How the values were obtained:
[1] = Relative Energy Difference (RED) with cholesterol, calculated from HSP; conditions: for Relative Energy Difference (RED) with cholesterol: RED=Ra/Ro, Ro of cholesterol 12.6
Protocol: The extent to which two compounds will dissolve each other can be quantified using the equations developed by Hansen: (Ra)^2=4(δd2−δd1)^2+(δp2−δp1)^2+(δh2−δh1)^2 Eq. (1) RED=Ra/Ro Eq. (2)
Equation 1 calculates the relative magnitude difference of the three Hansen parameters of the two compounds to arrive at Ra. […] Equation 2 allows one to calculate the Relative Energy Difference (RED) of the solvent and the material we are trying to dissolve, by dividing Ra by Ro. Ra was calculated in Equation 1 and measures the magnitude of the difference of the HSP values of the two compounds. The units for the HSP parameters δd, δp, δh are MPa^1/2. […] The Relative Energy Difference (RED) is a dimensionless number which quantifies how well a solvent will dissolve a solute. For an RED>>1 the compounds will not dissolve. For an RED˜1, there will be some dissolution. For an RED<1 there will be a considerable amount of dissolution. Essentially, the smaller RED value, the more solute will dissolve into the solvent, with RED=1 being a threshold where a given solute is starting to be soluble in a given solvent.
Referring now to FIG. 6, this diagram provides a flow chart showing how the biocompatible microdroplet solvent emulsion can be formulated. […] For an example of compounds which might be included in 400, please refer to Tables 1, 2, 3 and 4. However, this list of tables is by no means exhaustive and other compounds could be added to this list. The number of compounds selected can comprise of 1, 2, 3 or as many as are deemed necessary, which is symbolized by the variable n. The HSP parameters of a homogenous mixture of compounds are the weighted average of the HSP parameters of the individual components. […] Ideally, it is possible to formulate a solution such that the resultant RED of the mixture is smaller than the RED of any of the individual components.
The δdm, δpm, δhm calculated using Eq. 9 are the Hansen solubility parameters of the homogenous mixture, where m denotes mixture, and fi depicts the fraction of each of the n components used to fabricate the biocompatible solvent. Equation 10 can be used to calculate the RED of the final mixture, where Ro is the interaction radius of the cholesterol, or other component of arterial plaque one desires to dissolve using the biocompatible microdroplets and […] represents the Hansen solubility constants of cholesterol (dispersion, polar and hydrogen bonding components) or the HSP parameter of the arterial plaque which is being targeted.

[2] = single compound; cited from earlier work
[3] = Dissolving cholesterol by microdroplets in whole blood
Source text: (§1) To effectively dissolve arterial plaque in-vivo it is very important that the biocompatible solvent be sufficiently insoluble in blood to allow a small discrete microdroplet to travel through the blood stream, from the injection point, to the plaque which is being treated. If the biocompatible solvent dissolves within the blood, such as an alcohol, the solubility parameters of the resultant mixture will be very nearly identical to that of blood and will not dissolve cholesterol or arterial plaque. Conversely, if a discrete microdroplet of the biocompatible solvent makes contact with the plaque, then the cholesterol molecule in the plaque will be surrounded by multiple molecules of the biocompatible solvent, which have similar solubility parameters as the cholesterol, and the cholesterol will be drawn away from the plaque and into the droplet. […] An organic salt, Esters, an organo-metallic compound could also be used as the main component or an addition to the biocompatible microdroplet solvent means. Essentially any organic molecule which can be administered intravenously with acceptable side effects, is sufficiently insoluble in blood to travel as a discrete microdroplet without being dissolved prior to reaching arterial plaque and which is capable of dissolving cholesterol, cholesterol esters or other materials within the arterial plaque, could potentially be used.
1,8-cineole is classified as a cyclic ether and a monoterpenoid. […] This chemical gives certain fruits such as apples and strawberries their fruity taste, and is used as an additive in bubble gums for this purpose. […] It is used as a fragrance or flavouring agent. […] It is produced natuarally by the organism, and is found in abundance in shark liver oil.

[4] = cited from earlier work; for mass fraction of cholesterol which will dissolve in a pure solution of the alcohol: 37° C.
[5] = Water insoluble solvents tested for dissolving cholesterol / arterial plaque; conditions: medium not stated
Source text: as §1

Relative Energy Difference (RED) with cholesterol [1]	Molecule	δd London dispersion HSP parameter [2]	δh hydrogen bonding HSP parameter [2]	δp polarity HSP parameter [2]	further results
0.72	CC1=CC(=O)C(C(C)C)CC1 (stereo not shown) [Piperitone]	17 MPa^1/2	4.5 MPa^1/2	6.2 MPa^1/2	
0.72	CC(C)=CCCC(C)CCO (stereo not shown) [Citronellol]	16 MPa^1/2	10.7 MPa^1/2	4.7 MPa^1/2	
0.83	C=CC(C)(C)C(=O)C=C(C)C [Artemisia Ketone]	15.9 MPa^1/2	5.1 MPa^1/2	5.8 MPa^1/2	
0.77	CC12CCC(CC1)C(C)(C)O2 [1,8-cineole]	16.7 MPa^1/2	3.4 MPa^1/2	4.6 MPa^1/2	efficacy at dissolving cholesterol, two experiments compared ([3]; up to a 4× difference in blood volume): identical to within measurement error; efficacy of microdroplets at dissolving cholesterol in whole blood [3]: extremely good efficacy; efficacy of microdroplets at dissolving cholesterol in whole blood ([3]; listed as 1,8 cineole): excellent results; also recorded: excellent efficacy
	C=C(C)[C@H]1CC=C(C)CC1 (racemic) [Dipentene]	16.7 MPa^1/2	4 MPa^1/2	2.2 MPa^1/2	
0.64	C=CC(C)(O)CCC=C(C)CCC=C(C)C (stereo not shown) [Nerolidol]	16.4 MPa^1/2	8.7 MPa^1/2	2.7 MPa^1/2	
1.32	CCO [Ethanol, reference compound]				mass fraction of cholesterol which will dissolve in a pure solution of the alcohol [4]: 3.3%
0.76	Phellandrene	16.5 MPa^1/2	3.9 MPa^1/2	1.6 MPa^1/2	
0.5	C=C(C)C1CC=C(C)C(=O)C1 (stereo not shown) [Carvone]	18 MPa^1/2	6.4 MPa^1/2	5.6 MPa^1/2	efficacy of microdroplets at dissolving cholesterol in whole blood [3]: excellent results
	CCCCC/C=C\C/C=C\CCCCCCCC(=O)O [Linoleic acid]				result of solvent testing (dissolving cholesterol) [5]: very promising results
0.78	CC(C)=CCCC(C)CC=O (stereo not shown) [Citronellal]	16.2 MPa^1/2	5.2 MPa^1/2	5.9 MPa^1/2	
0.52	CC(C)=CCC/C(C)=C/CC/C(C)=C/CC/C=C(\C)CC/C=C(\C)CCC=C(C)C [Squalene]	17.6 MPa^1/2	6 MPa^1/2	3 MPa^1/2	
0.79	CC(C)[C@@H]1CC[C@@H](C)CC1=O [Menthone]	17 MPa^1/2	4.4 MPa^1/2	8.1 MPa^1/2	
0.63	CC1CCC(C(C)C)C(O)C1 (stereo not shown) [Menthol]	16.6 MPa^1/2	10.6 MPa^1/2	4.7 MPa^1/2	
0.74	CC(C)=CCC[C@H](C)[C@@H]1C=CC(C)=CC1 [Zingiberene]	16.6 MPa^1/2	4.1 MPa^1/2	1.4 MPa^1/2	
0.78	C=CC(=C)CCC=C(C)C [Myrcene]	16 MPa^1/2	5.1 MPa^1/2	2.2 MPa^1/2	
0.62	C=CC(C)=CCC=C(C)C [Ocimene]	16.5 MPa^1/2	9.1 MPa^1/2	2 MPa^1/2	
0.53	C=CCc1ccc(O)c(OC)c1 [Eugenol]	18.1 MPa^1/2	11.6 MPa^1/2	7.1 MPa^1/2	Ra^2 versus cholesterol ([1]; Eq. 1): 44; efficacy of microdroplets at dissolving cholesterol in whole blood [3]: excellent results
0.70	CC1=CCC(=C(C)C)CC1 [Terpinolene]	16.9 MPa^1/2	4.1 MPa^1/2	1.8 MPa^1/2	
	CC(C)CCC[C@@H](C)[C@H]1CC[C@H]2[C@@H]3CC=C4C[C@@H](O)CC[C@]4(C)[C@H]3CC[C@]12C [cholesterol, Cholesterol]	20.4 MPa^1/2	9.4 MPa^1/2	2.8 MPa^1/2	solubility of cholesterol in pure water ([4]; 30° C.): approximately 95 micrograms per litre; solubility of cholesterol in water ([4]; 30° C.): 0.000095 grams/litre
0.74	C=C(C)[C@@H]1CCC=C(C)C1 [Sylvestrene]	16.6 MPa^1/2	4.1 MPa^1/2	3 MPa^1/2	
0.70	CC(C)C12CCC(C)(CC1)O2 [1,4-Cineole]	17.1 MPa^1/2	3.7 MPa^1/2	3.6 MPa^1/2	
0.73	Bisabolene	16.7 MPa^1/2	4 MPa^1/2	2.2 MPa^1/2	
0.7	CC(C)=CCCC(C)=CC=O [Citral]	16.3 MPa^1/2	6.2 MPa^1/2	2.3 MPa^1/2	
	terpinene				efficacy of microdroplets at dissolving cholesterol in whole blood [3]: excellent results
0.65	CC(C)=CCCC(C)=CCCC(C)=CCO [Farnesol]	16.4 MPa^1/2	7.7 MPa^1/2	3.8 MPa^1/2	

Molecule	Relative Energy Difference (RED) with cholesterol [1]	δd London dispersion HSP parameter [2]	δh hydrogen bonding HSP parameter [2]	δp polarity HSP parameter [2]	further results
CC(C)=C1CC[C@@H](C)CC1=O [Pulegone]	0.74	17.5 MPa^1/2	5.5 MPa^1/2	8.9 MPa^1/2	
O [water, reference compound]	2.9				mass fraction of cholesterol which will dissolve in pure water ([4]; pure water): 0.0000095%
C=C(C)C1CC=C(C=O)CC1 (stereo not shown) [Perillaldehyde]	0.68	17.1 MPa^1/2	5.9 MPa^1/2	6.9 MPa^1/2	
CCCO [Propanol, reference compound]	1.10				mass fraction of cholesterol which will dissolve in a pure solution of the alcohol [4]: 11%
C=CC(C)(CCC=C(C)C)OC(C)=O (stereo not shown) [Linalyl Acetate]	0.76	16 MPa^1/2	5.5 MPa^1/2	2.8 MPa^1/2	
